Paper PMC7125190, “Native/citrullinated LL37-specific T-cells help autoantibody production in Systemic Lupus Erythematosus” (Scientific Reports, 2020)

What was measured:
[1] = test system: serum antibodies (anti-native LL37/anti-cit-LL37); experiment: ELISA for autoantibody detection in sera; assay type: binding, human; settings: for Antibody reactivity of control disease sera compared to SLE: psoriasis, RA, SSc and UC sera
Description: Anti-native/cit-LL37, other antigen antibodies (anti-DNA and anti-RNA), and total anti-human IgG were measured by ELISA as described. Briefly, 96-well flat-bottom plates (Non-Binding surface polystyrene, Corning, USA) are coated with 2 μg/mL of native LL37/cit-LL37 or control proteins or human DNA or human RNA[9] or anti-human IgG antibody (Sigma) in carbonate buffer (0.1 M NaHCHO3, pH 9) for 2 hours (or over night) and washed four times with PBS 0.1% Tween-20. This washing buffer was used for washing at all steps. The blocking buffer containing 2% bovine serum albumin (BSA, Sigma) in PBS was used for at least 1 hour (or over night) to saturate unspecific binding sites. After washing, sera were diluted at various concentrations (usually 1:100 or 1:200) in PBS 2% BSA (cell culture supernatants were diluted 1:2, 1:4 or 1:10) followed by 1 hour incubation with a horseradish peroxidase–conjugated (HRP) goat anti-human IgG (Sigma-Aldrich), diluted 1:10,000 in PBS. The color was developed for 5 minutes with 3,3’,5,5’-tetramethylbenzidine (TMB) substrate (Sigma-Aldrich). The reaction was stopped by adding 50 μl of 2 N H2SO4, and absorbance determined at 450 nm with a reference wavelength of 540 nm. Anti-dsDNA in sera of lupus patients were detected by the standard clinical test Kallestad Crithidia luciliae Complete Kits for detection and semi-quantitation of autoantibodies to native DNA (nDNA) antigens by indirect fluorescence antibody (IFA) procedure. ELISA for detection of anti-tetanus antibodies (anti-TT) was from Abnova (Taiwan).

PBMCs = experiment: IL-21 production in PBMC cultures (ELISA); assay type: cell-based, human; settings: SLE (but not in psoriasis)
Text: analyzed by flow-cytometry (after staining by BrdU-detection kit, BD Pharmingen). Before cloning, bulk-cultures were stimulated with autologous-irradiated PBMCs and peptide over night, and stained for CD3 and CD4 and with the “Cytokine secretion assays kits” (MACS, Miltenyi Biotec) to detect IL-2-, IFN-ɣ- and/or IL-17-secretion and CD38 as an activation marker, and sorted by a cell-sorter (MoFlo Astrios, Beckman Coulter). Dead cells were excluded by DAPI staining. Sorted activated CD4+CD3+ cells, secreting cytokines were cloned by limiting dilution in Terasaki plates (Nunc Microwell, Sigma-Aldrich) in the presence of allogeneic-irradiated (104) PBMCs activated by phytohaemagglutinin (1 µg/mL, PHA, Murex, 0.5 cells/well) and 100 U/mL of hrIL-2. Clones reactivity and HLA-restriction were analyzed using HLA-matched-homozigous B-LCLs, pulsed with […]
Measurement of cytokine production in primary T-cells and T-cell lines/clones Cytokines secretion was detected by ELISA (Quantikine; R&D Systems, Minneapolis, MN) for IL-4, IL-10, IL-17, IFN-ɣ, IL-22, IL-21, or by Th1/Th2 10-Plex and IL-17-Tissue Culture Kits (read by MSD Sector Imager 2400, Meso Scale Discovery, Gaithersburg, MD). Supernatants were harvested from primary cultures at day 3 (day 2 for T-cell lines/clones). Production of cytokines was also analyzed by flow cytometry after culture of PBMCs with LL37/LL37-peptides for 6-7 days. […]

[2] = eight SLE patients with T-cell follow-up, successful standard therapy
[3] = three SLE patients unresponsive to treatment
[4] = twenty-one SLE patients responding to treatment, 6-to-36 months

Substance | Antibody reactivity over time [1, 2] | Antibody reactivity of control disease sera compared to SLE [1] | Antibody reactivity over time [1, 3] | Antibody reactivity over time [1, 4] | IL-21 production (PBMCs) | SLE patients with antibody reactivity ([1]; SLE sera, twenty-one (native LL37) and eighteen (cit-LL37) of 40)
LLGDFFR(cit)KSKEKIGKEFKR(cit)IVQR(cit)IKDFLR(cit)NLVPR(cit)TES [cit-LL37, citrullinated LL37 (citrullinated at all five arginin positions)] | significantly declined | significantly weaker | increased | declined in parallel with SLEDAI reduction | significant up-regulation | 
LLGDFFRKSKEKIGKEFKRIVQRIKDFLRNLVPRTES [LL37, native LL37, antimicrobial peptide, 37 aa] | significantly declined | significantly weaker | increased | declined in parallel with SLEDAI reduction | significant up-regulation | 53%
